Source: BindingDB's records for doi:10.1016/S1074-5521(00)00004-1 (Pfizer, 2000)

Biological target: T1, Glycogen phosphorylase, liver form (Homo sapiens, UniProt P06737)
T1 sequence (P06737 whole entry): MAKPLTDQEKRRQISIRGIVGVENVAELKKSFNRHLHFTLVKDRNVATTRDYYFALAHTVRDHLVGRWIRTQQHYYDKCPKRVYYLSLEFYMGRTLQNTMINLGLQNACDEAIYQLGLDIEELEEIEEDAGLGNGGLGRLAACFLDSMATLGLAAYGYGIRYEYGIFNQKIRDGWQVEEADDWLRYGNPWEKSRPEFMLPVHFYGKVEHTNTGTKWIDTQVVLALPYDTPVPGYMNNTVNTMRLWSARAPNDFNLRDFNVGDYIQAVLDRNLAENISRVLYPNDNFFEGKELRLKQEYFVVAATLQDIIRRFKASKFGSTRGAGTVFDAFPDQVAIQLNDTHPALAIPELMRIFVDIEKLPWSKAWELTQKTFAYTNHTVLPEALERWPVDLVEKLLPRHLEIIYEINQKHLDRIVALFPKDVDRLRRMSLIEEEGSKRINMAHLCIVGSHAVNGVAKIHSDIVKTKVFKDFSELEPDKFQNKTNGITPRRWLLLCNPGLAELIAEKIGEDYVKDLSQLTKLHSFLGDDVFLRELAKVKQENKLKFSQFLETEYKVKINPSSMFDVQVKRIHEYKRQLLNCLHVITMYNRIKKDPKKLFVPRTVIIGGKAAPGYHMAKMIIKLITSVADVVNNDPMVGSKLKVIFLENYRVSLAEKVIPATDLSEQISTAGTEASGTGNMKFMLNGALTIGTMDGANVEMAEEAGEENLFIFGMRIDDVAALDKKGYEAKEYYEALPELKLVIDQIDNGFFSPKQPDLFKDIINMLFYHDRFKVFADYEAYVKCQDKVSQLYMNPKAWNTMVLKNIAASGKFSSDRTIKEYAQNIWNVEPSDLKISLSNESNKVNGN
Assay: Inhibition Activity Assay
Conditions: pH 7.2; 22 °C
Experimental: Human liver glycogen phsphorylase (HLGP) activity was measured in the direction of glycogen synthesis by the release of phosphate from glucose-1-phosphate.

SMILES	IC50
COCCNC(=O)c1cc2cc(Cl)ccc2[nH]1	12.5 µM
Cc1ccc2[nH]c(C(=O)NCCOCCOCCNC(=O)c3cc4cc(Cl)ccc4[nH]3)cc2c1 [CP-526,423]	0.006 µM
